Consider four compounds from ChEMBL document CHEMBL5365513, “Discovery of Selective Tertiary Amide Inhibitors of Cyclin-Dependent Kinase 2 (CDK2)” (ACS Med Chem Lett, 2023).

Series [1] in a line: Metabolic stability in human liver microsomes assessed as clearance at 1 uM incubated upto 180 mins by LC/MS-MS analysis. It is filed as ADME, Microsome. (In general: Liver microsomes are a subcellular fraction often used to study metabolism.)
Series [2] in a line: AUC (infinity) in CD-1 mouse at 50 mg/kg, po measured for 24 hrs by LC-MS/MS analysis. It is filed as ADME, organism-based. Also noted: time 24 hrs, dose 50 mg/kg, route po. The settings on record: in vivo.
Series [3] is described as follows: Oral bioavailability in CD-1 mouse at 50 mg/kg measured for 24 hrs by LC-MS/MS analysis. It is filed as ADME, organism-based. The following applies: in vivo.
Series [4] is described as follows: Clearance in CD-1 mouse at 1 mg/kg, iv measured for 5 mins by LC-MS/MS analysis. The following applies: in vivo. It is filed as ADME, organism-based.
Series [5] in a line: Apparent permeability across apical to basolateral side in MDCK cells at 5 uM measured for 60 to 180 mins by LC-MS/MS analysis. It is filed as ADME, cell-based, Canis lupus familiaris. The following applies: dog, time 60-180 min.
A short description of series [6]: Protein binding in human plasma assessed as unbound fraction incubated for 24 hrs by HPLC analysis. It is filed as ADME, cell-free.
For series [7], the target named is Cyclin-dependent kinase 2/cyclin E1 (Homo sapiens, UniProt P24941). Description: Binding affinity to CDK2/Cyclin E1 (unknown origin) using Ulight-MBP as substrate assessed as inhibition constant preincubated for 30 mins followed by substrate addition measured after 90 mins in presence of ATP by TR-FRET assay. It is filed as protein-complex assay. Background: TR-FRET usually uses a lanthanide donor and a delayed reading to cut background.

Series [8] in a line: Selectivity ratio of Ki for CDK4/Cyclin D3 (unknown origin) to Ki for CDK2/Cyclin E1 (unknown origin).
Series [9] in a line: Volume of distribution at steady state in CD-1 mouse at 1 mg/kg, iv measured for 5 mins by LC-MS/MS analysis. It is filed as ADME, organism-based. The following applies: in vivo; for Vd: CD-1, mouse, read-out: Vdss.
Series [10] is described as follows: Metabolic stability in mouse liver microsomes assessed as clearance at 1 uM incubated upto 180 mins by LC/MS-MS analysis. It is filed as ADME, Microsome.
Series [11] in a line: Selectivity ratio of IC50 for human SK-OV-3 cells to IC50 for human OVISE cells. Format: functional.
A short description of series [12]: Antiproliferative activity against human OVISE cells assessed as inhibition of cell division incubated for 16 hrs by EdU incorporation assay. It is filed as functional, cell-based.
Series [13] can be described thus: Kinetic solubility of compound. The following applies: read-out: Kinetic_solubility. It is filed as physicochemical.
The nature of series [14]: Half life in CD-1 mouse at 1 mg/kg, iv measured for 5 mins by LC-MS/MS analysis. The settings on record: in vivo; for half-life: CD-1, mouse. It is filed as ADME, organism-based.
Series [15] can be described thus: Lipophilicity, logD of compound at pH 7.4. It is filed as physicochemical. The settings on record: buffer.
Series [16] can be described thus: Selectivity ratio of Ki for CDK1/Cyclin A2 (unknown origin) to Ki for CDK2/Cyclin E1 (unknown origin).
Series [17] relates to OVCAR-3. Description: Antitumor activity against human OVCAR-3 cells xenografted in C.B-17 SCID.bg mouse assessed as tumor growth inhibition at 50 mg/kg, po bid treated for 3 days relative to control. It is filed as functional. The settings on record: OVCAR-3, 72 h, time 3 day, read-out: TGI. For orientation: In xenograft studies the graft and the host belong to different species.

Series [18] concerns the target Cyclin-dependent kinase 1 (Homo sapiens) (UniProt P06493). Description: Inhibition of CDK1 (unknown origin) at 0.1 uM.
In a further series the test system is MDR1. As to the kind of experiment: Efflux ratio of apparent permeability across basolateral to apical side to apical to basolateral side in MDCK-MDR1 cells at 5 uM measured for 60 to 180 mins by LC-MS/MS analysis. The following applies: dog, time 60-180 min. It is filed as ADME, cell-based, Canis lupus familiaris.
Series [19] relates to OVCAR-3. Description: Antitumor activity against human OVCAR-3 cells xenografted in C.B-17 SCID.bg mouse assessed as tumor growth inhibition at 125 mg/kg, po qd treated for 3 days relative to control. It is filed as functional. The following applies: OVCAR-3, 72 h, time 3 day, read-out: TGI.
Series [20] concerns OVCAR-3. As to the kind of experiment: Antitumor activity against human OVCAR-3 cells xenografted in C.B-17 SCID.bg mouse assessed as tumor growth inhibition at 80 mg/kg, po qd treated for 3 days relative to control. Format: functional. The following applies: OVCAR-3, 72 h, time 3 day, read-out: TGI.

≈ marks a conversion by molar mass, not a printed value. Calls of active or inactive are those of the source. The rule behind the calls is not given here.

A word on the AUC(0-inf): it is the area under the concentration-time curve extrapolated to infinity. For orientation: bioavailability means dose-corrected exposure relative to a reference, in per cent. A low value points to little systemic uptake. For orientation: clearance means the volume of plasma or blood freed of the substance per unit of time. Low values mean a low capacity for elimination, high ones a high capacity for elimination. A word on the Papp A→B: it is the apparent permeability from the apical to the basolateral side of a cell layer. As usually defined, the Ki is a measure of affinity in units of concentration, obtained from inhibition or displacement. The term IC50 denotes the midpoint of a concentration-inhibition curve. For orientation: half-life means how long it takes for the measured level to halve. A low value points to fast loss. In general, logD refers to lipophilicity at a set pH, counting ionised and neutral species. Low values mean a more hydrophilic compound, high ones a more lipophilic compound. What is called efflux ratio is the permeability from basolateral to apical divided by that in the opposite direction, in the common usage. As usually defined, the Vdss is the apparent volume that relates the amount in the body to the concentration in plasma or blood. Read a low Vdss as little distribution into tissue.

Chain of Cyclin-dependent kinase 1 (Homo sapiens) (P06493 whole entry, looked up): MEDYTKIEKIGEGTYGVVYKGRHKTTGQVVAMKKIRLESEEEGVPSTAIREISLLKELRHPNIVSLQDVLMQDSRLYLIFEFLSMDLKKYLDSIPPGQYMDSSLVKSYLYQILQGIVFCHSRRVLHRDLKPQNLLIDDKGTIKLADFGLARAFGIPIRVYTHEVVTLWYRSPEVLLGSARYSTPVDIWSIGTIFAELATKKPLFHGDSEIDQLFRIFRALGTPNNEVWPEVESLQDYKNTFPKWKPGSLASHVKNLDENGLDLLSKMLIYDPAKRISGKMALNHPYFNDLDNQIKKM

For `CNS(=O)(=O)c1ccc(Nc2ncc3ccc(C(=O)N4C[C@@H](C#N)[C@@H]4C)nc3n2)c(F)c1`, the CLhep predicted at 1 µM in [1] was 11 mL/min/kg; in series [10], 53 mL/min/kg. Also, the AUC(0-inf) in [2] came to 5.5 µM·h. In [3], this compound displayed a bioavailability of 3%. The clearance in series [4] was determined as 18 mL/min/kg. In addition, the Papp A→B at 5 µM in series [5] worked out at 5 ×10⁻⁶ cm/s. Also, in series [6], the Fu is recorded as 0.31%. Also, the Ki in series [7] turned out to be 0.44 nM. For the same compound, the Ratio Ki in [8] amounted to 186. In addition, in series [9], the Vd turned out to be 0.35 L/kg. Further, in series [11], the “Ratio IC50” value was 83. For the same compound, the concentration for half-maximal inhibition (IC50) in series [12] was 53 nM. Further, the solubility kinetic in series [13] was determined as 3 µM (≈ 1.37 µg/mL). In [14], this compound gave a half-life of 21.6 min. This compound returned a logD in series [15] of 1.5.
For the compound `CC[C@H](Nc1nc(NCc2cnc(C)cc2C)c2ncn(C(C)C)c2n1)[C@@H](C)O` [CYC-065], the Ratio Ki in series [8] was determined as 57; in series [16] it was 61. The IC50 in [12] was 1100 nM.
As for `CNS(=O)(=O)c1ccc(Nc2ncc3ccc(C(=O)N4C[C@@H](OC)[C@@H]4C)nc3n2)c(F)c1`, in the series on OVCAR-3 [17], the inhibition in vivo at 50 mg/kg was 112%. The figures for the CLhep predicted at 1 µM in series [1] and in series [10] were 9.4 mL/min/kg and 51 mL/min/kg, respectively. Moreover, the inhibition result in [18] is “Active”. Besides, the AUC(0-inf) in series [2] was determined as 13 µM·h. Besides, in [3], the bioavailability is 25%. The efflux ratio at 5 µM in the series on MDR1 is 16. In addition, the clearance in series [4] stood at 39 mL/min/kg. Moreover, the Papp A→B at 5 µM in series [5] amounted to 17 ×10⁻⁶ cm/s. In addition, the Fu in series [6] is on record as 0.28%. For the same compound, in series [7], the Ki worked out at 0.18 nM. In addition, in series [8], the Ratio Ki was 178. For the same compound, in series [9], the Vd is 0.78 L/kg. Also, the inhibition in vivo at 125 mg/kg with OVCAR-3 [19] was 81%. Also, in series [11], the “Ratio IC50” value was determined as 52. The IC50 in [12] was determined as 25 nM. Moreover, in series [13], the solubility kinetic was 33 µM (≈ 15.2 µg/mL). The half-life in [14] was 19.8 min. Besides, the logD in [15] was 1.7.
Regarding `CNS(=O)(=O)c1ccc(Nc2ncc3ccc(C(=O)N4CC[C@@H]4C)nc3n2)c(F)c1`, the results for the CLhep predicted at 1 µM in series [1] and in [10] were 18 mL/min/kg and 50 mL/min/kg, respectively. For the same compound, in [18], the inhibition result was “Active”. Besides, the AUC(0-inf) in series [2] stood at 11 µM·h. In [3], this compound came in with a bioavailability of 9%. Besides, the efflux ratio at 5 µM with MDR1 is 13. Besides, the Papp A→B at 5 µM in [5] is 15 ×10⁻⁶ cm/s. The Fu in series [6] was determined as 0.26%. Also, the Ki in [7] was found to be 0.18 nM. The Ratio Ki in series [8] came out at 250. In series [9] (mouse, iv, 1 mg/kg, 5 min), this compound returned a Vdss of 1.1 L/kg. Also, the “Ratio IC50” value in [11] is given as 50. Besides, the IC50 in series [12] was found to be 38 nM. Further, in series [13], the solubility kinetic was found to be 31 µM (≈ 13.3 µg/mL). The compound also registered a t1/2 in series [14] (mouse, iv, 1 mg/kg, 5 min) of 17.4 min. In addition, the inhibition in vivo at 80 mg/kg in the series on OVCAR-3 [20] is 85%. In series [15], this compound yielded a logD of 1.8.
